Measured values taken from PubChem BioAssay AID1963840 (Molecular Pharmacology Branch, DTP, NCI, 2024).

Test system: 695427-040-R-J1-PDC complex spheroid viability
Experiment: Anticancer human tumor 695427-040-R-J1-PDC patient-derived colon adenocarcinoma cell line growth inhibition [POLQ]
Details: for IC50: curve of first compound; for viability, T/C: stronger effect = lower value
Experimental: Multicellular complex tumor spheroid response to Polymerase (POL) inhibitors (novobiocin, ART-558, RP6685) in combination with a variety of drugs and investigational agents in selected tumor cell lines
The POL inhibitors (novobiocin, ART-558, and RP6685) were evaluated both individually and in combination with standard of care and investigational anticancer small molecules within a complex spheroid model of solid tumors. . Complex spheroids include a stromal component modeled by human endothelial cells (HUVEC) and fibroblasts modeled by human mesenchymal stem cells (MSCs). The concentration ranges selected for each drug and investigational agent were based upon clinically achievable concentrations if the clinical Cmax of the agent was known.
Compounds. The drugs and investigational agents: novobiocin (NSC847541), ART-558 (NSC835418), RP-6685 (NSC848927), peposertib (NSC802822), ceralasertib (NSC780249), elimusertib (NSC800525), camonsertib (NSC841442), AZD-1390 (NSC803789), olaparib (NSC753686), talazoparib (NSC767125), rucaparib (NSC756644), sotorasib (NSC818433), MRTX-1133 (NSC836407), SN-38 (NSC673596), topotecan (NSC609699), epotoside (NSC141540), doxorubicin (NSC123127), gemcitabine (NSC613327), 5-fluorouracil (NSC19893), paclitaxel (NSC125973), vemurafenib (NSC761431), MSA-2 (NSC828583), SN-011 (NSC837082), adavosertib (NSC754352), prexasertib (NSC758257), carboplatin (NSC241240) and oxaliplatin (NSC266046), were obtained from the National Cancer Institute (NCI) Developmental Therapeutics Program Chemical Repository (21). The FDA-approved anticancer drug set is available from the Developmental Therapeutics Program at https://dtp.cancer.gov/organization/dscb/obtaining/. […] The stock solutions were prepared in dimethyl sulfoxide (DMSO, Sigma-Aldrich, St. Louis, MO, cat. D2650), except for the platinum compounds which were prepared in saline (Quality Biological, Gaithersburg, MD, cat. 114-055-101), at 800-fold the tested concentration and stored at -70 degrees C prior to their use. All drugs and investigational agents were tested over a range starting from a high concentration at or near the clinical Cmax and decreasing in half-log increments. If the clinical Cmax for an agent had not been determined, the highest concentration tested was 10 microM, except for SN-38, which was tested at a high concentration of 1 microM.
Cell Culture. All cells were maintained in an incubator at 37 degrees C and 5% CO2 with 95% humidity. The PDC lines were cultured according to standard operating procedures established by the NCI PDMR (https://pdmr.cancer.gov). Table 3 of the manuscript, lists the cell lines along with the number of the three cell types plated to form the mct-spheroids and media for tumor cell growth. After thawing, all PDC lines, except 997537-175-T-J1-PDC and 415267-285-R-J2-PDC, were cultured in Matrigel-coated flasks prepared with a working solution of 1X Ham's F-12 nutrient mix, without supplementation (Thermo Fisher Scientific, cat. 11765054), 100 U/mL penicillin-streptomycin (Thermo Fisher Scientific, cat. 15140122), and 2.5% Matrigel (Corning Inc., Corning, NY, cat. 354248) for the first three passages. The two PDC lines 997537-175-T-J1-PDC and 415267-285-R-J2-PDC were cultured on uncoated flasks. The 857933-349-R-J2-PDC line was cultured in 6C/Colon 1B media containing advanced DMEM/F-12 (Thermo Fisher Scientific, cat. 12634028), 10 mM HEPES (Thermo Fisher Scientific, cat. 15630080), 1X GlutaMAX supplement (Thermo Fisher Scientific, cat. 35050061), 0.1 mg/mL primocin (InvivoGen, San Diego, CA, cat. ant-pm-2), 10% defined fetal bovine serum, heat inactivated (HyClone Laboratories Inc., Logan, UT, cat. SH30070.03HI), 50% L-WRN conditioned media (ATCC, cat. CRL-3276), 1.25 mM N-Acetyl-L-cysteine (Sigma-Aldrich, cat. A9165), 10 mM nicotinamide (Sigma-Aldrich, cat. N0636), 1X B-27 supplement (Thermo Fisher Scientific, cat. 17504044), 1X N-2 supplement (Thermo Fisher Scientific, cat. […]

[1] = second compound 0.0316 µM, first compound 0.0316 µM
[2] = second compound 0.0316 µM, first compound 0.1 µM
[3] = second compound 0.0316 µM, first compound 0.316 µM
[4] = second compound 0.0316 µM, first compound 1 µM
[5] = second compound 0.0316 µM, first compound 3.16 µM
[6] = second compound 0.0316 µM, first compound 10 µM
[7] = second compound 0.1 µM, first compound 0.0316 µM
[8] = second compound 0.1 µM, first compound 0.1 µM
[9] = second compound 0.1 µM, first compound 0.316 µM
[10] = second compound 0.1 µM, first compound 1 µM
[11] = second compound 0.1 µM, first compound 3.16 µM
[12] = second compound 0.1 µM, first compound 10 µM
[13] = second compound 0.316 µM, first compound 0.0316 µM
[14] = second compound 0.316 µM, first compound 0.1 µM
[15] = second compound 0.316 µM, first compound 0.316 µM
[16] = second compound 0.316 µM, first compound 1 µM
[17] = second compound 0.316 µM, first compound 3.16 µM
[18] = second compound 0.316 µM, first compound 10 µM
[19] = second compound 1 µM, first compound 0.0316 µM
[20] = second compound 1 µM, first compound 0.1 µM
[21] = second compound 1 µM, first compound 0.316 µM
[22] = second compound 1 µM, first compound 1 µM
[23] = second compound 1 µM, first compound 3.16 µM
[24] = second compound 1 µM, first compound 10 µM
[25] = second compound 3.16 µM, first compound 0.0316 µM
[26] = second compound 3.16 µM, first compound 0.1 µM
[27] = second compound 3.16 µM, first compound 0.316 µM
[28] = second compound 3.16 µM, first compound 1 µM
[29] = second compound 3.16 µM, first compound 3.16 µM
[30] = second compound 3.16 µM, first compound 10 µM
[31] = second compound 10 µM, first compound 0.0316 µM
[32] = second compound 10 µM, first compound 0.1 µM
[33] = second compound 10 µM, first compound 0.316 µM
[34] = second compound 10 µM, first compound 1 µM
[35] = second compound 10 µM, first compound 3.16 µM
[36] = second compound 10 µM, first compound 10 µM
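Also: spheroids exposed to compounds for seven days.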
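For viability, T/C in this document: 100% = DMSO vehicle control viability.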

COc1ccc([C@@H](O)c2cc(-c3ncnc4cc(N5CCOCC5)ccc34)c(F)cc2Cl)nn1 + COC1C(OC(N)=O)C(O)C(Oc2ccc3c(O)c(NC(=O)c4ccc(O)c(CC=C(C)C)c4)c(=O)oc3c2C)OC1(C)C
IC50 (second compound 0.0316 µM): > 10 µM | IC50 (second compound 0.1 µM): > 10 µM | IC50 (second compound 0.316 µM): > 10 µM | IC50 (second compound 1 µM): > 10 µM | IC50 (second compound 3.16 µM): > 10 µM | IC50 (second compound 10 µM): > 10 µM | viability, T/C [1]: 104% | viability, T/C [2]: 99.5% | viability, T/C [3]: 105% | viability, T/C [4]: 92.9% | viability, T/C [5]: 75.5% | viability, T/C [6]: 56% | viability, T/C [7]: 114% | viability, T/C [8]: 104% | viability, T/C [9]: 104% | viability, T/C [10]: 94.2% | viability, T/C [11]: 76.7% | viability, T/C [12]: 57.9% | viability, T/C [13]: 127% | viability, T/C [14]: 99.1% | viability, T/C [15]: 99% | viability, T/C [16]: 89.9% | viability, T/C [17]: 76.8% | viability, T/C [18]: 51.5% | viability, T/C [19]: 94.9% | viability, T/C [20]: 92.3% | viability, T/C [21]: 98.3% | viability, T/C [22]: 91.5% | viability, T/C [23]: 82% | viability, T/C [24]: 54.5% | viability, T/C [25]: 105% | viability, T/C [26]: 101% | viability, T/C [27]: 97% | viability, T/C [28]: 98.4% | viability, T/C [29]: 83.5% | viability, T/C [30]: 57.6% | viability, T/C [31]: 101% | viability, T/C [32]: 89.6% | viability, T/C [33]: 94.4% | viability, T/C [34]: 101% | viability, T/C [35]: 76.8% | viability, T/C [36]: 51.7%

CCCS(=O)(=O)Nc1ccc(F)c(C(=O)c2c[nH]c3ncc(-c4ccc(Cl)cc4)cc23)c1F + Cc1cccc(N(C)C(=O)C2C(O)CCN2c2nc(C)cc(C(F)(F)F)c2C#N)c1
IC50 (second compound 0.0316 µM): > 10 µM | IC50 (second compound 0.1 µM): > 10 µM | IC50 (second compound 0.316 µM): > 10 µM | IC50 (second compound 1 µM): > 10 µM | IC50 (second compound 3.16 µM): > 10 µM | IC50 (second compound 10 µM): > 10 µM | viability, T/C [1]: 113% | viability, T/C [2]: 105% | viability, T/C [3]: 102% | viability, T/C [4]: 100% | viability, T/C [5]: 116% | viability, T/C [6]: 86.8% | viability, T/C [7]: 129% | viability, T/C [8]: 111% | viability, T/C [9]: 104% | viability, T/C [10]: 109% | viability, T/C [11]: 111% | viability, T/C [12]: 82.6% | viability, T/C [13]: 101% | viability, T/C [14]: 118% | viability, T/C [15]: 96.3% | viability, T/C [16]: 109% | viability, T/C [17]: 123% | viability, T/C [18]: 77.5% | viability, T/C [19]: 112% | viability, T/C [20]: 111% | viability, T/C [21]: 102% | viability, T/C [22]: 108% | viability, T/C [23]: 127% | viability, T/C [24]: 73.2% | viability, T/C [25]: 100% | viability, T/C [26]: 104% | viability, T/C [27]: 103% | viability, T/C [28]: 114% | viability, T/C [29]: 112% | viability, T/C [30]: 104% | viability, T/C [31]: 101% | viability, T/C [32]: 100% | viability, T/C [33]: 92% | viability, T/C [34]: 98.8% | viability, T/C [35]: 108% | viability, T/C [36]: 77.9%

Cn1ncnc1[C@H]1c2n[nH]c(=O)c3cc(F)cc(c23)N[C@@H]1c1ccc(F)cc1 + Nc1ccc(C#CCN(C(=O)Cc2ncc(C(F)(F)F)cc2C(F)(F)F)c2ccc(F)cc2)nn1
IC50 (second compound 0.0316 µM): > 0.1 µM | IC50 (second compound 0.1 µM): > 0.1 µM | IC50 (second compound 0.316 µM): > 0.1 µM | IC50 (second compound 1 µM): > 0.1 µM | IC50 (second compound 3.16 µM): > 0.1 µM | IC50 (second compound 10 µM): > 0.1 µM | viability, T/C (second compound 0.0316 µM, first compound 0.000316 µM): 109% | viability, T/C (second compound 0.0316 µM, first compound 0.001 µM): 103% | viability, T/C (second compound 0.0316 µM, first compound 0.00316 µM): 109% | viability, T/C (second compound 0.0316 µM, first compound 0.01 µM): 103% | viability, T/C [1]: 111% | viability, T/C [2]: 95.1% | viability, T/C (second compound 0.1 µM, first compound 0.000316 µM): 100% | viability, T/C (second compound 0.1 µM, first compound 0.001 µM): 122% | viability, T/C (second compound 0.1 µM, first compound 0.00316 µM): 109% | viability, T/C (second compound 0.1 µM, first compound 0.01 µM): 104% | viability, T/C [7]: 108% | viability, T/C [8]: 88.4% | viability, T/C (second compound 0.316 µM, first compound 0.000316 µM): 110% | viability, T/C (second compound 0.316 µM, first compound 0.001 µM): 109% | viability, T/C (second compound 0.316 µM, first compound 0.00316 µM): 88.5% | viability, T/C (second compound 0.316 µM, first compound 0.01 µM): 102% | viability, T/C [13]: 110% | viability, T/C [14]: 105% | viability, T/C (second compound 1 µM, first compound 0.000316 µM): 107% | viability, T/C (second compound 1 µM, first compound 0.001 µM): 102% | viability, T/C (second compound 1 µM, first compound 0.00316 µM): 104% | viability, T/C (second compound 1 µM, first compound 0.01 µM): 99.7% | viability, T/C [19]: 119% | viability, T/C [20]: 92.8% | viability, T/C (second compound 3.16 µM, first compound 0.000316 µM): 105% | viability, T/C (second compound 3.16 µM, first compound 0.001 µM): 100% | viability, T/C (second compound 3.16 µM, first compound 0.00316 µM): 104% | viability, T/C (second compound 3.16 µM, first compound 0.01 µM): 103% | viability, T/C [25]: 108% | viability, T/C [26]: 89% | viability, T/C (second compound 10 µM, first compound 0.000316 µM): 102% | viability, T/C (second compound 10 µM, first compound 0.001 µM): 90.9% | viability, T/C (second compound 10 µM, first compound 0.00316 µM): 99% | viability, T/C (second compound 10 µM, first compound 0.01 µM): 88.1% | viability, T/C [31]: 102% | viability, T/C [32]: 86.1%
